# Key:
# human CB1 receptor [1] = molecular target: T1, human CB1 receptor (Homo sapiens, UniProt P21554); experiment: bioSensAll GAPL-Gi2 BRET biosensor assay (antagonism of CP-55,940); type: cell-based; conditions: HEK293 cells transfected with hCB1 and GAPL-Gi2 biosensor, EC75 of CP-55,940 (0.1 nM), overnight incubation, read-out: CB1 wt Gi2 IC50
# T1 construct: expressed in transfected cells; host or cells: HEK293
# Experimental: (§1) Using polyethylenimine (PEI) transfection agent, HEK293 cells were transfected in suspension with the human CB1 or CB1b receptor and one of the following bioSensAll® assays: GAPL-Gi2, or β-arrestin plasma membrane (PM) translocation biosensor (+GRK2). Cells were directly seeded in 96-well plates immediately following transfection.
# (§2) Cells were incubated with coelenterazine (luciferase substrate) and different test compounds prior to the measurement of BRET signals.
# i) GAPL sensors are used to monitor the activation of heterotrimeric G proteins at the plasma membrane upon receptor stimulation. Specifically, these multimolecular BRET sensors detect the plasma membrane recruitment of proteins that interact with active Ga subunits in a G protein family-selective manner. G protein activation following receptor stimulation generally leads to an increase in the BRET signal.
# (§3) HEK293 cells were maintained in Dulbecco's Modified Eagle Medium (DMEM) (Wisent; cat #319-030-CL: without sodium pyruvate, with 4.5 g/L glucose, without L-glutamine) supplemented with 1% penicillin-streptomycin (Wisent; cat #450-201-EL) and 2 or 10% fetal bovine serum (Wisent cat #090150).
# (§4) HEK293 cells were co-transfected with hCB1 or hCB1b and one of the above-listed bioSensAll® assays. For each transfection condition: • the total amount of transfected DNA was kept constant at 1 μg per mL of cell culture to be transfected; whenever necessary, salmon sperm DNA (Invitrogen, cat #15632011) was used as ‘carrier’ DNA to supplement plasmid DNA (i.e., biosensor and receptor); • the PEI (polyethylenimine 25 kDa linear, PolyScience, cat #23966) to DNA ratio (ug:ug) was fixed at 3:1.
# (§5) Transfections were carried out as follows: • DNA and PEI were first diluted separately in 150 mM NaCl. The volume of the diluent in each tube corresponds to 5% of the cell culture volume to be transfected. • Once DNA and PEI were diluted, the PEI-containing solution was added to the DNA solution and the DNA/PEI mixture immediately vortexed for 5 seconds. • The DNA/PEI mixture was incubated for at least 20 minutes at room temperature to allow for the formation of DNA/PEI complexes. • During the incubation, HEK293 cells were detached, counted and re-suspended in culture medium (composition specified above). • At the end of the incubation period, the DNA/PEI mixture was added to the cells. • Cells were finally distributed in 96-well plates (White Opaque 96-well/Microplates, Greiner, cat #655083 or CulturPlate-96, White Opaque 96-well Microplate, PerkinElmer, cat #6005688) at a density of 30 000 cells per well.
# (§6) At ˜48 hours post-transfection: • Using 450-Select TS Biotek plate washer, culture medium was aspirated and replaced with 100 μl of Hank's Balanced Salt Solution buffer (HBSS) (Wisent, cat #319-067CL: without red phenol; with sodium bicarbonate, with calcium and magnesium, with HEPES) per well. This process was performed a total of two times (i.e., 2 washes). • After the washing step, the HP D300 digital dispenser (Tecan) was used to inject increasing doses (12) of test compounds (ranging from 0-600 nM) to wells. Three to five minutes later, an EC75 of CP-55,940 (0.1 nM for GAPL-Gi2 assay; 100 nM for β-arrestin PM translocation biosensor (+GRK2)) was added to columns 2-12 of each 96-well plate.
# (§7) BRET signals were determined by calculating the ratio of light emitted by GFP-acceptor (515 nm) over light emitted by luciferase-donor (400 nm). All BRET ratios were standardized using the equation below with pre-established BRET values for positive and negative controls. The standardized BRET ratio is referred to as universal BRET (uBRET).
# (§8) Resulting dose-response curves were fitted using the four-parameter logistic non-linear regression model in GraphPad Prism 9.
# human CB1 receptor [2] = molecular target: T1, human CB1 receptor; experiment: bioSensAll β-arrestin plasma membrane translocation BRET biosensor (+GRK2) assay (antagonism of CP-55,940); type: cell-based; conditions: HEK293 cells transfected with hCB1 and β-arrestin PM translocation biosensor (+GRK2), EC75 of CP-55,940 (100 nM), overnight incubation, read-out: CB1 wt βarr2 IC50
# Experimental: as §1, §2
# ii) The multimolecular β-arrestin membrane recruitment biosensors allow for real-time spatio-temporal monitoring of β-arrestin 1 and β-arrestin 2 following GPCR activation. Specifically, these β-arrestin sensors were designed to detect the recruitment of proteins to the plasma membrane (β-arrestin PM) with localization to compartment resulting in an increased BRET signal.
# as §3, §4, §5, §6, §7, §8
# T1 sequence (P21554 whole entry): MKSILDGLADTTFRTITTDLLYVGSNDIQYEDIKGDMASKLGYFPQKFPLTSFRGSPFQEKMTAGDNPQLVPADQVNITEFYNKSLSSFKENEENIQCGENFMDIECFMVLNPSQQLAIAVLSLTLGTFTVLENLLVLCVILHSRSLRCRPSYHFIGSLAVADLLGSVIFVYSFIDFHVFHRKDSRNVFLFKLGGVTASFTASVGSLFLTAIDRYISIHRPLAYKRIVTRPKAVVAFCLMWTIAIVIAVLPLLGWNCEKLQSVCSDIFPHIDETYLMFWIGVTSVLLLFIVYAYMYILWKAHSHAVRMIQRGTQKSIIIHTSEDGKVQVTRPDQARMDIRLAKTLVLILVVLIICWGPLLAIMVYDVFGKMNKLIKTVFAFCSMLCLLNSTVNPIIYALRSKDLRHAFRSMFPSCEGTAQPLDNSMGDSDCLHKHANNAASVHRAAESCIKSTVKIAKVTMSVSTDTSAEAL
SMILES,IC50 (human CB1 receptor [1]) [nM],IC50 (human CB1 receptor [2]) [nM]
"CCNC(=O)CN(C)c1cc(N2CCC(C)(C(N)=O)CC2)n2nc(-c3ccccc3Cl)c(-c3ccc(Cl)cc3)c2n1 [Compound 26, 1-[2-(2-chlorophenyl)-3-(4-chlorophenyl)-5-[[2-(ethylamino)-2-oxo-ethyl]-methyl-amino]pyrazolo[1,5-a]pyrimidin-7-yl]-4-methyl-piperidine-4-carboxamide]",5.03,30.5
"CCOC1(C(N)=O)CCN(c2cc(OCC(C)(C)O)nc3c(-c4ccc(Cl)cc4)c(-c4ccccc4Cl)nn23)CC1 [Compound 42, 1-[2-(2-chlorophenyl)-3-(4-chlorophenyl)-5-(2-hydroxy-2-methyl-propoxy)pyrazolo[1,5-a]pyrimidin-7-yl]-4-ethoxy-piperidine-4-carboxamide]",1.67,4.73
"CCOC1(C(N)=O)CCN(c2cc(OCC(C)(C)O)nc3c(-c4ccc(Cl)cc4)c(-c4ccc(C#N)nc4)nn23)CC1 [Compound 55, 1-[3-(4-chlorophenyl)-2-(6-cyano-3-pyridyl)-5-(2-hydroxy-2-methyl-propoxy)pyrazolo[1,5-a]pyrimidin-7-yl]-4-ethoxy-piperidine-4-carboxamide]",1.25,3.22
"OC[C@@H]1CCCN1c1cc(N2CCC(C(F)(F)F)CC2)n2nc(-c3ccccc3Cl)c(-c3ccc(Cl)cc3)c2n1 [Compound 2, [(2S)-1-[2-(2-chlorophenyl)-3-(4-chlorophenyl)-7-[4-(trifluoromethyl)-1-piperidyl]pyrazolo[1,5-a]pyrimidin-5-yl]pyrrolidin-2-yl]methanol]",1.28,5.27
"CC(C)(O)COc1cc(N2CCC[C@@H](C(N)=O)C2)n2nc(-c3ccccc3Cl)c(-c3ccc(Cl)cc3)c2n1 [Compound 17(R), 1-[2-(2-chlorophenyl)-3-(4-chlorophenyl)-5-(2-hydroxy-2-methyl-propoxy)pyrazolo[1,5-a]pyrimidin-7-yl]piperidine-3-carboxamide]",17.1,49.8
"CCNC(=O)CN(C)c1cc(N2CC[C@H](CC(N)=O)C2)n2nc(-c3ccccc3Cl)c(-c3ccc(Cl)cc3)c2n1 [Compound 36, 2-[(3R)-1-[2-(2-chlorophenyl)-3-(4-chlorophenyl)-5-[[2-(ethylamino)-2-oxo-ethyl]-methyl-amino]pyrazolo[1,5-a]pyrimidin-7-yl]pyrrolidin-3-yl]acetamide]",150,325
"CC(C)OC1(C(N)=O)CCN(c2cc(OCC(C)(C)O)nc3c(-c4ccc(Cl)cc4)c(-c4ccccc4Cl)nn23)CC1 [Compound 57, 1-[2-(2-chlorophenyl)-3-(4-chlorophenyl)-5-(2-hydroxy-2-methyl-propoxy)pyrazolo[1,5-a]pyrimidin-7-yl]-4-isopropoxy-piperidine-4-carboxamide]",1.04,2.86
"CN(CCC(N)=O)c1cc(N2CCC(C)(C(N)=O)CC2)n2nc(-c3ccccc3Cl)c(-c3ccc(Cl)cc3)c2n1 [Compound 22, 1-[5-[(3-amino-3-oxo-propyl)-methyl-amino]-2-(2-chlorophenyl)-3-(4-chlorophenyl)pyrazolo[1,5-a]pyrimidin-7-yl]-4-methyl-piperidine-4-carboxamide]",0.99,9.15
"CN(C[C@H](O)CO)c1cc(N2CCC(C)(C(N)=O)CC2)n2nc(-c3ccccc3Cl)c(-c3ccc(Cl)cc3)c2n1 [Compound 67, 1-[2-(2-chlorophenyl)-3-(4-chlorophenyl)-5-[[(2S)-2,3-dihydroxypropyl]-methyl-amino]pyrazolo[1,5-a]pyrimidin-7-yl]-4-methyl-piperidine-4-carboxamide]",1.96,14.5
"CC(C)(O)COc1cc(N2CCC[C@H](C(N)=O)C2)n2nc(-c3ccccc3Cl)c(-c3ccc(Cl)cc3)c2n1 [Compound 17(S), (3S)-1-[2-(2-chlorophenyl)-3-(4-chlorophenyl)-5-(2-hydroxy-2-methyl-propoxy)pyrazolo[1,5-a]pyrimidin-7-yl]piperidine-3-carboxamide]",9.09,40.4
"CC(C)(O)COc1cc(N2CC(C)(C#N)C2)n2nc(-c3ccc(C#N)nc3)c(-c3ccc(Cl)cc3)c2n1 [Compound 51, 5-[3-(4-chlorophenyl)-7-(3-cyano-3-methyl-azetidin-1-yl)-5-(2-hydroxy-2-methyl-propoxy)pyrazolo[1,5-a]pyrimidin-2-yl]pyridine-2-carbonitrile]",0.95,1.73
C[C@H](CO)Oc1cc(-c2ccc(C(F)(F)F)nc2)n2nc(-c3ccccc3Cl)c(-c3ccc(Cl)cc3)c2n1 [Compound 71(R)],3.08,12.3
"COc1ccc(-c2cc(N3CCC[C@H]3CO)nc3c(-c4ccc(Cl)cc4)c(-c4ccccc4Cl)nn23)cc1 [Compound 5, [(2S)-1-[2-(2-chlorophenyl)-3-(4-chlorophenyl)-7-(4-methoxyphenyl)pyrazolo-[1,5-a]pyrimidin-5-yl]pyrrolidin-2-yl]methanol]",3.69,8.6
"NC(=O)CC1CN(c2cc(N3CCC[C@H]3C(N)=O)nc3c(-c4ccc(Cl)cc4)c(-c4ccccc4Cl)nn23)C1 [Compound 35, (2S)-1-[7-[3-(2-amino-2-oxo-ethyl)azetidin-1-yl]-2-(2-chlorophenyl)-3-(4-chlorophenyl)pyrazolo[1,5-a]pyrimidin-5-yl]pyrrolidine-2-carboxamide]",158,> 10000
"C[C@@H](C(N)=O)N(C)c1cc(N2CCC(C)(C(N)=O)CC2)n2nc(-c3ccccc3Cl)c(-c3ccc(Cl)cc3)c2n1 [Compound 68, 1-[5-[[(1S)-2-amino-1-methyl-2-oxo-ethyl]-methyl-amino]-2-(2-chlorophenyl)-3-(4-chlorophenyl)pyrazolo[1,5-a]pyrimidin-7-yl]-4-methyl-piperidine-4-carboxamide]",3.01,14.5
C[C@@H](O)COc1cc(-c2ccc(C(F)(F)F)nc2)n2nc(-c3ccccc3Cl)c(-c3ccc(Cl)cc3)c2n1 [Compound 70(R)],1.11,2.78
"N#Cc1ccc(-c2nn3c(N4CC(C(N)=O)C4)cc(N4CCC[C@H]4CO)nc3c2-c2ccc(Cl)cc2)cn1 [Compound 61, 1-[3-(4-chlorophenyl)-2-(6-cyano-3-pyridyl)-5-[(2S)-2-(hydroxymethyl)pyrrolidin-1-yl]pyrazolo[1,5-a]pyrimidin-7-yl]azetidine-3-carboxamide]",1.39,3.65
CC(C)OC1(C(N)=O)CCN(c2cc(OCC(C)(C)O)nc3c(-c4ccc(Cl)cc4)c(-c4ccc(C#N)nc4)nn23)CC1 [Compound 63],0.9,1.62
"OC[C@@H]1CCCN1c1cc(-c2ccc(C(F)(F)F)cc2)n2nc(-c3ccccc3Cl)c(-c3ccc(Cl)cc3)c2n1 [Compound 4, [(2S)-1-[2-(2-chlorophenyl)-3-(4-chlorophenyl)-7-[4-(trifluoromethyl)phenyl]pyrazolo[1,5-a]pyrimidin-5-yl]pyrrolidin-2-yl]methanol]",4.04,10.6

# Reference: patent publication US20250145628A1, “PYRAZOLOPYRIMIDINES, COMPOSITIONS COMPRISING THEM AND USES THEREOF” (Novo Nordisk A/S, priority 2022, published 2025)
